A short description of this experiment: In vitro inhibition of [3H]flunitrazepam binding to GABA-A receptor of rat cerebral cortex membranes. Type of experiment: cell membranes, Membrane.

Results on 7 compounds are retold here after ChEMBL document CHEMBL1124604, “Synthesis and benzodiazepine receptor affinities of rigid analogues of 3-carboxy-beta-carbolines: demonstration that the benzodiazepine receptor recognizes preferentially the s-cis conformation of the 3-carboxy group” (J Med Chem, 1989).

`CCc1c(C(=O)NC)[nH]cc2nc3ccccc3c1-2`: the 50% inhibitory concentration (IC50) is over 10000 nM. For `O=C1OCCc2c1[nH]cc1nc3ccccc3c2-1` the value was 42 nM; for `COC(=O)c1cc2c(cn1)[nH]c1ccccc12` [BETA-CCM], 3.5 nM; for `CCOC(=O)c1cc2c(cn1)[nH]c1ccccc12`, 7 nM. In turn, `CCc1c(C(=O)OC)[nH]cc2nc3ccccc3c1-2` displayed an IC50 of 27 nM. This IC50 lies about 3.9-fold higher than the previous one.

`CNC(=O)c1cc2c(cn1)[nH]c1ccccc12` displayed an IC50 of 197 nM. This IC50 is about 7.3-fold higher than that of the compound before. For `O=C1NCCc2c1[nH]cc1nc3ccccc3c2-1` the value was 150 nM.

In general, IC50 refers to the midpoint of a concentration-inhibition curve.
